Reference: patent US20240114940A1, “SACCHARIDE COMPOSITIONS HAVING SUCROSE-LIKE CHARACTERISTICS AND RELATED METHODS” (priority 2021, published 2024)

Experiments:
Type in all cases: physicochemical
[1] = Breakdown products by GCMS after Maillard reaction in the presence of Histidine; settings: 160° C.; for 2-Butanone concentration / 2-Propanone, 1-hydroxy- concentration / Diacetyl (2,3-Butanedione) concentration: Carbonyls/ketones; for Furan, 2-methyl- concentration / Furfural concentration: Furans; for Pyrazine, 2,5-diethyl- concentration / Pyrazine, 2,5-dimethyl- concentration / Pyrazine, 2-ethyl-5-methyl- concentration / Pyrazine, ethyl- concentration / Pyrazine, methyl- concentration: Pyrazines
Procedure: (§1) Controls were prepared addition of 1 mL of pH 7 buffer to the amino acids. The samples were rapidly heated to 160° C. and held at this temperature for 10 min. Samples were rapidly cooled afterwards, and absorbance at 500 nm was measured for each reaction mixture. Volatiles were analysed using gas chromatography mass spectrometry (GCMS) analysis. An Agilent Technologies 5975B Inert XL MSD gas chromatography, single quadruple mass spectrometer was used for analysis of volatiles. Samples were added to separate GCMS headspace vials and weighed. 0.03 g of 0.01% 3-heptanone in water was added and the vial was sealed for GCMS solid phase micro extraction (SPME) analysis. Samples were analysed in a randomized order. Samples were incubated and agitated at 250 RPM, at 60° C. for 15 min prior to SPME analysis of volatiles. The SPME fibre (50/30 DVB/CAR/PDMS, 23 Ga) extracted for 10 min, then thermally desorbed at 250° C. for 5 min. A 30 m×0.25 mm×0.25 μm HP-5MS column was used (Phenomenex, UK). Oven temperature settings: 31° C.-5 min, 5° C./min to 150° C., 30° C./min to 240° C. Inlet settings: 250° C., pressure 10.4 psi, flow 11.2 mL/min, split ratio 7:1. MS operated in full scan mode from 40 to 400 m/z with a scan time of 0.2s. The peak area of the aroma compounds was compared to the peak of the internal standard 3-heptanone and corrected for the weight of the sample.
(§2) The concentration of the different classes of Maillard reaction breakdown products is presented in Tables 9B-E. The same data as Tables 9B-E is also presented in FIG. 27. Concentrations are in parts per billion of the difference non-enzymatic breakdown products for the different compositions at 160° C. analysed by GCMS.

[2] = Breakdown products by GCMS after Maillard reaction in the presence of Leucine; settings: Maillard reaction in the presence of Leucine, 160° C., GCMS; for 2-Butanone concentration / 2-Propanone, 1-hydroxy- concentration / Diacetyl (2,3-Butanedione) concentration: Carbonyls/ketones; for Furan, 2-methyl- concentration / Furfural concentration: Furans; for Pyrazine, 2,5-diethyl- concentration / Pyrazine, 2,5-dimethyl- concentration / Pyrazine, 2-ethyl-5-methyl- concentration / Pyrazine, ethyl- concentration / Pyrazine, methyl- concentration: Pyrazines; for Isovaleraldehyde (Butanal, 3-methyl-) concentration: Strecker aldehydes
Procedure: as §1, §2

[3] = Breakdown products by GCMS without an amino acid present; settings: pH 7, 160° C., 10 min
Procedure: as §1, §2

[4] = Breakdown products by GCMS after Maillard reaction in the presence of Tryptophan; settings: with Tryptophan, pH 7, 160° C., 10 min
Procedure: as §1, §2

| Compound | 2-Butanone concentration [1] | 2-Propanone, 1-hydroxy- concentration [1] | Diacetyl (2,3-Butanedione) concentration [1] | Furan, 2-methyl- concentration [1] | Furfural concentration [1] | Pyrazine, 2,5-diethyl- concentration [1] | Pyrazine, 2,5-dimethyl- concentration [1] | Pyrazine, 2-ethyl-5-methyl- concentration [1] | Pyrazine, ethyl- concentration [1] | Pyrazine, methyl- concentration [1] | 2-Butanone concentration [2] | 2-Propanone, 1-hydroxy- concentration [2] | Diacetyl (2,3-Butanedione) concentration [2] | Furan, 2-methyl- concentration [2] | Furfural concentration [2] | Pyrazine, 2,5-diethyl- concentration [2] | Pyrazine, 2,5-dimethyl- concentration [2] | Pyrazine, 2-ethyl-5-methyl- concentration [2] | Pyrazine, ethyl- concentration [2] | Pyrazine, methyl- concentration [2] | further results |
| --- | --- | --- | --- | --- | --- | --- | --- | --- | --- | --- | --- | --- | --- | --- | --- | --- | --- | --- | --- | --- | --- |
| N[C@@H](Cc1c[nH]cn1)C(=O)O [Histidine] | 1.25 ppb | 0 ppb | 2.2 ppb | 0 ppb | 0.02 ppb | 0 ppb | 0 ppb | 0.38 ppb | 0 ppb | 0 ppb | – | – | – | – | – | – | – | – | – | – | – |
| CC(C)C[C@H](N)C(=O)O [Leucine] | – | – | – | – | – | – | – | – | – | – | 2.04 ppb | 0.23 ppb | 3.75 ppb | 0 ppb | 0.03 ppb | 0 ppb | 0 ppb | 1 ppb | 0 ppb | 0 ppb | Isovaleraldehyde (Butanal, 3-methyl-) concentration [2]: 1.56 ppb |
| O=C[C@H](O)[C@@H](O)[C@H](O)CO [Xylose] | 53.5 ppb | 196.75 ppb | 32.61 ppb | 28.4 ppb | 15.26 ppb | 17.88 ppb | 587.06 ppb | 288.64 ppb | 4.48 ppb | 5.22 ppb | 212.85 ppb | 647.73 ppb | 458.75 ppb | 170.12 ppb | 118.44 ppb | 84.11 ppb | 2510.13 ppb | 1146.75 ppb | 59.9 ppb | 496.33 ppb | Concentration of 2-Butanone [3]: 75.3 ppb; Concentration of 2-Propanone, 1-hydroxy- [3]: 196.36 ppb; Concentration of 5-methyl furfural [3]: 27.19 ppb; Concentration of Diacetyl (2,3-Butanedione) [3]: 267.18 ppb; Concentration of Furan, 2-methyl- [3]: 7.83 ppb; Concentration of Furfural [3]: 65.56 ppb; Isovaleraldehyde (Butanal, 3-methyl-) concentration [2]: 15873.58 ppb; Concentration of 2-Butanone [4]: 70.81 ppb; Concentration of 2-Propanone, 1-hydroxy- [4]: 227.11 ppb; Concentration of Diacetyl (2,3-Butanedione) [4]: 55.57 ppb; Concentration of Furan, 2-methyl- [4]: 52.32 ppb; Concentration of Furan, 2-pentyl- [4]: 6.28 ppb; Concentration of Furfural [4]: 0.15 ppb; Concentration of Indole [4]: 53.49 ppb; Concentration of Pyrazine, 2,5-diethyl- [4]: 25 ppb; Concentration of Pyrazine, 2,5-dimethyl- [4]: 751.39 ppb; Concentration of Pyrazine, 2-ethyl-5-methyl- [4]: 394.72 ppb; Concentration of Pyrazine, ethyl- [4]: 13.61 ppb; Concentration of Pyrazine, methyl- [4]: 59.72 ppb |
| N[C@@H](Cc1c[nH]c2ccccc12)C(=O)O [Tryptophan] | – | – | – | – | – | – | – | – | – | – | – | – | – | – | – | – | – | – | – | – | Concentration of 2-Butanone [4]: 0.56 ppb; Concentration of 2-Propanone, 1-hydroxy- [4]: 0.05 ppb; Concentration of Diacetyl (2,3-Butanedione) [4]: 2.08 ppb; Concentration of Furan, 2-methyl- [4]: 0 ppb; Concentration of Furan, 2-pentyl- [4]: 0.03 ppb; Concentration of Furfural [4]: 0.02 ppb; Concentration of Indole [4]: 8.55 ppb; Concentration of Pyrazine, 2,5-diethyl- [4]: 0 ppb; Concentration of Pyrazine, 2,5-dimethyl- [4]: 0 ppb; Concentration of Pyrazine, 2-ethyl-5-methyl- [4]: 0.26 ppb; Concentration of Pyrazine, ethyl- [4]: 0 ppb; Concentration of Pyrazine, methyl- [4]: 0 ppb |
